16 compounds from patent US8759333B2, “Di-azetidinyl diamide as monoacylglycerol lipase inhibitors” (Janssen Pharmaceutica, NV, priority 2010, dated 2014) can be followed below.

Residue numbers refer to the chain shown, from its start.

One assay addresses T1, MGL (Rattus norvegicus, UniProt Q8R431).
T1 construct: one g rat brain was homogenized using a Polytron homogenizer; from tissue; host or cells: rat brain homogenate
T1 sequence (Q8R431 1-303): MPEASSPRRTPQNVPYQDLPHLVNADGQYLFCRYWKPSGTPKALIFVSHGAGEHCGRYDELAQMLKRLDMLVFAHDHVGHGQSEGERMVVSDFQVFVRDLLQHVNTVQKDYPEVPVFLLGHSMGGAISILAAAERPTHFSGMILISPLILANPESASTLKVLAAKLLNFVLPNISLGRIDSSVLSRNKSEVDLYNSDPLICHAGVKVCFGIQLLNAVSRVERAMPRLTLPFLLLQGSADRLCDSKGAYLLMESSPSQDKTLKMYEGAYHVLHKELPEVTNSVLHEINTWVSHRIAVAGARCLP
The assay can be described thus: 2-AG Accumulation Assay in rat brain homogenate. The class given is biochemical. As to conditions: percent of vehicle; for activity at 1 µM: compound @1 µM, read-out: Rat Brain 2AG % VehCntrl (%) @1 µM; for activity at 10 µM: compound @10 µM, read-out: Rat Brain 2AG % VehCntrl (%) @10 µM.

The next assay has as its target T2, mutant MGL (Homo sapiens, UniProt Q99685, L169S/L176S).
T2 construct: purified mutant MGL (mut-MGLL 11-313 L179S L186S)
T2 sequence (Q99685 1-303 L169S/L176S): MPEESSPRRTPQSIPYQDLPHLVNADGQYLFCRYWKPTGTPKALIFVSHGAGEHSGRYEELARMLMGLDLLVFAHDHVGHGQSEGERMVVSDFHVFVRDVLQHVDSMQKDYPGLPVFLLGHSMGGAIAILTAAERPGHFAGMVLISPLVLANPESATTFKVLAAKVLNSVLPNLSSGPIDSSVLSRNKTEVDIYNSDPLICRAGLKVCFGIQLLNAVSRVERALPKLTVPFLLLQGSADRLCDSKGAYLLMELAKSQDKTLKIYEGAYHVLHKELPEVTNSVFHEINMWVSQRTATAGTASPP
The assay can be described thus: MGL ThermoFluor Assay - Mutant. Format: binding. As to conditions: 0.07 mg/ml mutant MGL, 100 μM ANS, pH 7.0. A digest of the protocol:
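Thermal-shift binding with 0.07 mg/ml L169S/L176S mutant MGL, 100 μM 1,8-ANS, 200 mM NaCl, 0.001% Tween-20, 50 mM PIPES pH 7.0, heated 40–90 °C at 1 °C/min.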
A general note: In DSF a fluorescence change marks the thermal transition of the protein.

The target in assay [1] is T3, mutant MGL (mut-MGLL 11-313 L179S L186S) (Homo sapiens, UniProt Q99685, L169S/L176S).
T3 construct: purified mutant MGL (mut-MGLL 11-313 L179S L186S)
T3 sequence (Q99685 1-303 L169S/L176S): T2 sequence (Q99685 1-303 L169S/L176S)
Kind of assay: MGL Enzyme Activity Assay, purified mutant MGL, 4MU-B substrate. The class given is biochemical. As to conditions: mutant MGL 5 nM, 4MU-B 10 μM, 37° C.; read-out: MGL mutant inh IC50. In a few lines:
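Purified mutant MGL (5 nM final) with 10 μM 4MU-B in 20 mM PIPES pH 7.0, 150 mM NaCl, 0.001% Tween 20; compounds 17 to 0.0003 μM final. Fluorescence (ex 335/em 440 nm) followed 5 min at 37 °C; IC50 from fit of fractional activity versus inhibitor concentration.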

For assay [2], the target named is T4, wild type MGL (wt-MGLL 6H-11-313) (Homo sapiens, UniProt Q99685).
T4 construct: purified wild type MGL (wt-MGLL 6H-11-313); 6H (hexahistidine) (N)
T4 sequence (Q99685 1-303): T2 sequence (Q99685 1-303 L169S/L176S) with S169L, S176L
The assay can be described thus: MGL Enzyme Activity Assay, purified wild type MGL, 4MU-B substrate. Format: biochemical. As to conditions: wild type MGL 5 nM, 4MU-B 10 μM, 37° C.; read-out: MGL wild type inh IC50. As for the experimental part:
All rate-based assays were performed in black 384-well polypropylene PCR microplates (Abgene) in a total volume of 30 μL. […] Final compound concentrations ranged from 17 to 0.0003 μM.
The IC50 values for the following compounds were determined using Microsoft Office Excel from a fit of the equation to the concentration-response plot of the fractional activity as a function of inhibitor concentration.

Turning to `O=C(c1sc2cc(-c3ccccc3)ccc2c1-c1ccccc1)N1CC(N2CC(N3Cc4ccccc4C3=O)C2)C1` [Cpd 74, 2-{1′-[(3,6-Diphenyl-1-benzothiophen-2-yl)carbonyl]-1,3′-biazetidin-3-yl}-2,3-dihydro-1H-isoindol-1-one], the activity at 1 µM on MGL is 323%. On mutant MGL, this compound yielded a Kd of 1.3 nM. In addition, the IC50 in assay [1] was 12 nM; in assay [2] it was less than 5 nM.
Turning to `CS(=O)(=O)c1cccc(-c2ccc3sc(C(=O)N4CC(N5CC(N6Cc7ccccc7C6=O)C5)C4)cc3c2)c1` [Cpd 82, 2-[1′-({5-[3-(Methylsulfonyl)phenyl]-1-benzothiophen-2-yl}carbonyl)-1,3′-biazetidin-3-yl]-2,3-dihydro-1H-isoindol-1-one], the activity at 1 µM on MGL came out at 490%. Moreover, the affinity on mutant MGL, expressed as Kd, was 105 nM. In addition, the IC50 in assay [1] is 22 nM; in assay [2] it was 16 nM.
With `O=C(NC1CN(C2CN(C(=O)c3ccc(-c4ccc(C(F)(F)F)s4)cc3)C2)C1)c1nccs1` [Cpd 9, N-[1′-({4-[5-(Trifluoromethyl)thiophen-2-yl]phenyl}carbonyl)-1,3′-biazetidin-3-yl]-1,3-thiazole-2-carboxamide], at MGL, the activity at 1 µM worked out at 193%. In addition, the activity at 10 µM on MGL worked out at 160%. The same compound displayed a Kd at mutant MGL of 14 nM. Further, the IC50 in assay [1] was 13 nM; in assay [2], 506 nM.
As for `O=C(NC1CN(C2CN(C(=O)c3ccc4c(ccn4-c4ccccc4)c3)C2)C1)c1nccs1` [Cpd 13, N-{1′-[(1-Phenyl-1H-indol-5-yl)carbonyl]-1,3′-biazetidin-3-yl}-1,3-thiazole-2-carboxamide], the activity at 1 µM on MGL stood at 441%. For the same compound, on mutant MGL, the affinity, expressed as Kd, was 50 nM. For the same compound, the IC50 in assay [1] was 19 nM; in assay [2] it was less than 5 nM.
The corresponding values for `O=C(NC1CN(C2CN(C(=O)c3cc4ccc(C(F)(F)F)cc4s3)C2)C1)c1cscn1` [Cpd 49, N-(1′-{[6-(Trifluoromethyl)-1-benzothiophen-2-yl]carbonyl}-1,3′-biazetidin-3-yl)-1,3-thiazole-4-carboxamide] are 167%, 31.9 nM, less than 5 nM and 14 nM.
For `Cc1c(C(=O)N2CC(N3CC(N4Cc5scnc5C4=O)C3)C2)sc2cc(C(F)(F)F)ccc12` [Cpd 103, 5-(1′-{[3-Methyl-6-(trifluoromethyl)-1-benzothiophen-2-yl]carbonyl}-1,3′-biazetidin-3-yl)-5,6-dihydro-4H-pyrrolo[3,4-d][1,3]thiazol-4-one], at MGL, the activity at 1 µM was determined as 360%. The compound also registered a Kd on mutant MGL of 33 nM. Further, the half-maximal inhibitory concentration (IC50) in assay [2] is 21 nM.
As for `O=C(c1sc2cc(-c3ccccc3)ccc2c1Cl)N1CC(N2CC(N3Cc4ccccc4C3=O)C2)C1` [Cpd 68, 2-{1′-[(3-Chloro-6-phenyl-1-benzothiophen-2-yl)carbonyl]-1,3′-biazetidin-3-yl}-2,3-dihydro-1H-isoindol-1-one], on MGL, the activity at 1 µM was found to be 433%. At mutant MGL, the Kd turned out to be 3.3 nM. The IC50 is 6 nM in assay [1] and less than 5 nM in assay [2].
The corresponding values for `O=C(NC1CN(C2CN(C(=O)c3ccc4c(cnn4-c4ccccc4)c3)C2)C1)c1nccs1` [Cpd 52, N-{1′-[(1-Phenyl-1H-indazol-5-yl)carbonyl]-1,3′-biazetidin-3-yl}-1,3-thiazole-2-carboxamide] are 291%, 73.4 nM, less than 5 nM and less than 5 nM.
The corresponding values for `O=C(NC1CN(C2CN(C(=O)c3ccc4nc(-c5ccccc5)sc4c3)C2)C1)c1nccs1` [Cpd 4, N-{1′-[(2-Phenyl-1,3-benzothiazol-6-yl)carbonyl]-1,3′-biazetidin-3-yl}-1,3-thiazole-2-carboxamide] are 148%, 143 nM, 7 nM and 13 nM.
The matching figures for `O=C(NC1CN(C2CN(C(=O)c3cc4ccc(C(F)(F)F)cc4s3)C2)C1)c1nccs1` [Cpd 7, N-(1′-{[6-(Trifluoromethyl)-1-benzothiophen-2-yl]carbonyl}-1,3′-biazetidin-3-yl)-1,3-thiazole-2-carboxamide]: 243%, 10 nM, 10 nM and less than 5 nM.
On to `O=C(NC1CN(C2CN(C(=O)c3ccc(-c4ccc(C(F)(F)F)cc4)cc3)C2)C1)c1cscn1` [Cpd 14, N-(1′-{[4′-(Trifluoromethyl)biphenyl-4-yl]carbonyl}-1,3′-biazetidin-3-yl)-1,3-thiazole-4-carboxamide], for which the activity at 1 µM at MGL is 187%. Further, the dissociation constant Kd on mutant MGL came to 86 nM. Besides, the IC50 in assay [1] was found to be 27 nM; in assay [2], 9 nM.
For `O=C(NC1CN(C2CN(C(=O)c3ccc(-c4ccc(C(F)(F)F)cc4)cc3)C2)C1)c1nccs1` [Cpd 12, N-(1′-{[4′-(Trifluoromethyl)biphenyl-4-yl]carbonyl}-1,3′-biazetidin-3-yl)-1,3-thiazole-2-carboxamide], at MGL, the activity at 1 µM stood at 215% and the activity at 10 µM was determined as 557%. This compound also gave a Kd on mutant MGL of 51 nM. For the same compound, in assay [1], the IC50 was determined as 18 nM. Besides, the concentration for half-maximal inhibition (IC50) in assay [2] was less than 5 nM.
Turning to `O=C(c1sc2cc(Br)ccc2c1Cl)N1CC(N2CC(N3Cc4ccccc4C3=O)C2)C1` [Cpd 73, 2-{1′-[(6-Bromo-3-chloro-1-benzothiophen-2-yl)carbonyl]-1,3′-biazetidin-3-yl}-2,3-dihydro-1H-isoindol-1-one], the activity at 1 µM at MGL was 295%. Further, the equilibrium dissociation constant (Kd) on mutant MGL was found to be 31.3 nM. Besides, the IC50 in assay [1] is 12 nM; in assay [2] it was less than 5 nM.
`O=C(NC1CN(C2CN(C(=O)c3sc4cc(C(F)(F)F)ccc4c3Cl)C2)C1)c1cscn1` [Cpd 51, N-(1′-{[3-Chloro-6-(trifluoromethyl)-1-benzothiophen-2-yl]carbonyl}-1,3′-biazetidin-3-yl)-1,3-thiazole-4-carboxamide]: the activity at 1 µM at MGL came to 477%. Moreover, on mutant MGL, the Kd was 2.2 nM. Further, the IC50 in assay [1] and in assay [2] was less than 5 nM in each case.
With `O=C(NC1CN(C2CN(C(=O)c3sc4cc(C(F)(F)F)ccc4c3Cl)C2)C1)c1nccs1` [Cpd 50, N-(1′-{[3-Chloro-6-(trifluoromethyl)-1-benzothiophen-2-yl]carbonyl}-1,3′-biazetidin-3-yl)-1,3-thiazole-2-carboxamide], the activity at 1 µM on MGL amounted to 460%. Besides, the Kd on mutant MGL was 0.7 nM. Also, the half-maximal inhibitory concentration (IC50) in assay [1] and in assay [2] was less than 5 nM in each case.
With `CS(=O)(=O)c1cccc(-c2ccc3cc(C(=O)N4CC(N5CC(N6Cc7ccccc7C6=O)C5)C4)sc3c2)c1` [Cpd 72, 2-[1′-({6-[3-(Methylsulfonyl)phenyl]-1-benzothiophen-2-yl}carbonyl)-1,3′-biazetidin-3-yl]-2,3-dihydro-1H-isoindol-1-one], the activity at 1 µM on MGL turned out to be 781%. For the same compound, the dissociation constant (Kd) at mutant MGL amounted to 33.2 nM. The IC50 is 9 nM in assay [1] and less than 5 nM in assay [2].

By Kd is commonly meant the concentration at which binding is half-saturated. A lower Kd goes with higher affinity. The term IC50 denotes the point on the concentration scale where inhibition reaches its midpoint.
